# According to patent publication US8053585B2, “Protecting group for carboxylic acids that can be photolyzed by visible light” (Cornell Research Foundation, Inc., priority 2006, dated 2011):
# Entries after “also recorded” stand apart in the source; their conditions may differ.
# Target: T1, α1-subunit of the human glycine receptor (Homo sapiens, UniProt P23415)
# T1 construct: expressed in transfected cells; host or cells: HEK 293 cells, transiently transfected (Polyfect), co-transfected with GFP plasmid as marker; cDNA from Prof; H. Betz
# T1 sequence (P23415 29-457): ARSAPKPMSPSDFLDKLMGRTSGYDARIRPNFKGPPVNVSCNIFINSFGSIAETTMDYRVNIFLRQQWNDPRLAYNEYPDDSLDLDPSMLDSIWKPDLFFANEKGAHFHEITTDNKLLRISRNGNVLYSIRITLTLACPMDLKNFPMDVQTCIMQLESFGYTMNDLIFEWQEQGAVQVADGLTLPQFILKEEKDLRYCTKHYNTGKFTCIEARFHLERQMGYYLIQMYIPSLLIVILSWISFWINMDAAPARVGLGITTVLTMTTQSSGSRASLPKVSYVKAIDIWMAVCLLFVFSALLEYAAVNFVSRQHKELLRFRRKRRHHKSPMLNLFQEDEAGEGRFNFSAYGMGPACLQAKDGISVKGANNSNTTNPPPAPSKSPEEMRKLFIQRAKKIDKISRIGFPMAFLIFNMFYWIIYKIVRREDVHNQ
# Assay: Whole-cell current recording with cell-flow method, HEK 293 cells expressing glycine receptor
# Format: cell-based
# Description: In whole-cell current recording experiments with DECM-caged glutamate, HEK 293 cells stably transfected with cDNA encoding the GluR6 were used. In whole-cell current recording experiments with DECM-caged glycine, HEK 293 cells were transiently transfected with the cDNA of the α1-subunit of the human glycine receptor by using the Polyfect™ transfection reagent (Qiagen GmbH, D-40724, Hilden, Germany). The cDNA of the α1-subunit was kindly provided by Professor H. Betz (Max-Plank-Institute for brain Research, Frankfurt, Germany). The cells were co-transfected with cDNA encoding the green fluorescent protein (pGreen Lantern plasmid, Life Technologies, Gaitherberg, Md.) to detect transfected cells (Chalfie et al., “Green Fluorescent Protein as a Marker for Gene Expression,” Science 263:802-805 (1994), which is hereby incorporated by reference in its entirety).
# The cells were used for electrophysiological experiments between 24 and 72 h after each passage. Whole-cell currents evoked by glutamate or glycine (100 μM) were recorded using the whole-cell configuration (Hamill et al., “Improved Patch-Clamp Techniques for High-Resolution Current Recording From Cells and Cell-Free Membrane Patches,” Pfluegers Arch 391:85-100 (1981), which is hereby incorporated by reference in its entirety) at room temperature, −60 mV, and pH 7.4. […]
smiles,measurement,setting,value
"CCN(CC)c1ccc2c(COC(=O)CN)cc(=O)oc2c1 [DECM-caged glycine, (7-N,N-Diethylaminocoumarin-4-yl)-methyl-glycine-trifluoroacetate]","whole-cell current evoked by 100 μM glycine, presence vs absence of compound","2 mM DECM-caged glycine (FIG. 10 legend), −60 mV, pH 7.4, 22° C.",does not inhibit
same,biological activity at glycine receptors (inhibition or activation),HEK293 cells expressing glycine receptors,biologically inert; also recorded: neither DECM-caged glycine nor its byproducts inhibited or activated the glycine receptors
